In ChEMBL document CHEMBL1201862, “PubChem BioAssay data set” (2004):
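Five compound concentrations were applied to cells in 96-well plates for 48 hours; endpoints were derived by simple linear interpolation of the resulting dose-response curve. Abbreviation: GI50, concentration required for 50% inhibition of growth.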 Activity calls are given as the source filed them. Rule as the data show it: active = GI50 up to about 1.1 µM and inactive = higher.

Legend:
Test in all cases: growth of human tumour cells (NCI), 48 h
[1] = system: HCT-116
[2] = system: SF-539
[3] = system: SNB-19
[4] = system: RXF 393
[5] = system: K562
[6] = system: SW-620
[7] = system: RPMI-8226
[8] = system: DU-145
[9] = system: OVCAR-5
[10] = system: BT-549
[11] = system: TK-10
[12] = system: OVCAR-8
[13] = system: OVCAR-3
[14] = system: SN12C
[15] = system: SK-MEL-2
[16] = system: HOP-62
[17] = system: NCI-H522
[18] = system: HOP-92
[19] = system: LOX IMVI
[20] = system: U-251
[21] = system: SNB-75
[22] = system: PC-3
[23] = system: HCT-15
[24] = system: MCF7
[25] = system: UACC-257
[26] = system: KM12
[27] = system: OVCAR-4
[28] = system: NCI-H460
[29] = system: SK-OV-3
[30] = system: EKVX
[31] = system: MDA-N
[32] = system: SF-268
[33] = system: HL-60
[34] = system: MOLT-4
[35] = system: A549
[36] = system: ACHN
[37] = system: Hs-578T
[38] = system: MDA-MB-231
[39] = system: NCI-H226
[40] = system: M14
[41] = system: IGROV-1
[42] = system: NCI/ADR-RES
[43] = system: 786-0
[44] = system: SK-MEL-5
[45] = system: NCI-H23
[46] = system: COLO 205
[47] = system: CCRF-CEM
[48] = system: CAKI-1
[49] = system: SR
[50] = system: SK-MEL-28
[51] = system: HCC 2998
[52] = system: UO-31
[53] = system: MDA-MB-435
[54] = system: Malme-3M
[55] = system: T47D
[56] = system: HT-29
[57] = system: SF-295
[58] = system: UACC-62
[59] = system: A498

## Nc1ccc(S(=O)(=O)Nc2nc3ccccc3nc2N2CCCCCC2)cc1
[1]
  GI50: 16.6 µM (inactive)
[2]
  GI50: 18.5 µM (inactive)
[3]
  GI50: 32.7 µM (inactive)
[4]
  GI50: 16 µM (inactive)
[5]
  GI50: 17.6 µM (inactive)
[6]
  GI50: 20 µM (inactive)
[7]
  GI50: 14.6 µM (inactive)
[8]
  GI50: 30.9 µM (inactive)
[9]
  GI50: 38.5 µM (inactive)
[10]
  GI50: 7.23 µM (inactive)
[11]
  GI50: 31.8 µM (inactive)
[12]
  GI50: 31.9 µM (inactive)
[13]
  GI50: 18.3 µM (inactive)
[14]
  GI50: 11 µM (inactive)
[15]
  GI50: 20 µM (inactive)
[16]
  GI50: 20 µM (inactive)
[17]
  GI50: 29 µM (inactive)
[18]
  GI50: 23.4 µM (inactive)
[19]
  GI50: 17.3 µM (inactive)
[20]
  GI50: 20.2 µM (inactive)
[21]
  GI50: 50.8 µM (inactive)
[22]
  GI50: 29.8 µM (inactive)
[23]
  GI50: 23.9 µM
[24]
  GI50: 38.9 µM (inactive)
[25]
  GI50: 32.9 µM (inactive)
[26]
  GI50: 30.9 µM (inactive)
[27]
  GI50: 17.1 µM (inactive)
[28]
  GI50: 23.4 µM (inactive)
[29]
  GI50: 33.6 µM (inactive)
[30]
  GI50: 40.3 µM (inactive)
[31]
  GI50: 32.5 µM (inactive)
[32]
  GI50: 45.9 µM (inactive)
[33]
  GI50: 19.1 µM (inactive)
[34]
  GI50: 16 µM (inactive)
[35]
  GI50: 27.7 µM (inactive)
[36]
  GI50: 35.9 µM (inactive)
[37]
  GI50: 37.2 µM (inactive)
[38]
  GI50: 26.9 µM (inactive)
[39]
  GI50: 34.7 µM (inactive)
[40]
  GI50: 37.2 µM (inactive)
[41]
  GI50: 34.4 µM (inactive)
[42]
  GI50: 30.8 µM (inactive)
[43]
  GI50: 30.2 µM (inactive)
[44]
  GI50: 16.1 µM (inactive)
[45]
  GI50: 9.06 µM (inactive)
[46]
  GI50: 16.6 µM (inactive)
[47]
  GI50: 33.5 µM (inactive)
[48]
  GI50: 26.4 µM (inactive)
[49]
  GI50: 12.5 µM (inactive)
[50]
  GI50: 18.5 µM (inactive)
[51]
  GI50: 16.6 µM (inactive)
[52]
  GI50: 13.2 µM (inactive)
[53]
  GI50: 18.1 µM (inactive)
[54]
  GI50: 34.4 µM (inactive)
[55]
  GI50: 22.9 µM (inactive)
[56]
  GI50: 33.3 µM (inactive)
[57]
  GI50: 22.9 µM (inactive)
[58]
  GI50: 18.1 µM (inactive)

## CCOc1c(OC)cc(CNNc2nccs2)cc1OC
[1]
  GI50: > 100 µM (inactive)
[2]
  GI50: > 100 µM (inactive)
[3]
  GI50: > 100 µM (inactive)
[4]
  GI50: > 100 µM (inactive)
[5]
  GI50: 24 µM (inactive)
[6]
  GI50: > 100 µM (inactive)
[7]
  GI50: 7.03 µM (inactive)
[8]
  GI50: 15 µM (inactive)
[9]
  GI50: 4.57 µM (inactive)
[10]
  GI50: 41.5 µM (inactive)
[11]
  GI50: > 100 µM (inactive)
[12]
  GI50: > 100 µM (inactive)
[13]
  GI50: > 100 µM (inactive)
[14]
  GI50: > 100 µM (inactive)
[16]
  GI50: > 100 µM (inactive)
[17]
  GI50: 52.6 µM (inactive)
[18]
  GI50: 67.6 µM (inactive)
[19]
  GI50: 47.2 µM (inactive)
[20]
  GI50: 32.7 µM (inactive)
[21]
  GI50: 34.8 µM (inactive)
[22]
  GI50: 41.9 µM (inactive)
[23]
  GI50: 28 µM
[24]
  GI50: > 100 µM (inactive)
[59]
  GI50: > 100 µM (inactive)
[25]
  GI50: 20.1 µM (inactive)
[26]
  GI50: > 100 µM (inactive)
[27]
  GI50: > 100 µM (inactive)
[28]
  GI50: 27 µM (inactive)
[30]
  GI50: 19.3 µM (inactive)
[31]
  GI50: > 100 µM (inactive)
[32]
  GI50: > 100 µM (inactive)
[33]
  GI50: 13.4 µM (inactive)
[34]
  GI50: 28.6 µM (inactive)
[35]
  GI50: 60 µM (inactive)
[36]
  GI50: > 100 µM (inactive)
[37]
  GI50: > 100 µM (inactive)
[38]
  GI50: 94.2 µM (inactive)
[39]
  GI50: > 100 µM (inactive)
[40]
  GI50: 42.1 µM (inactive)
[41]
  GI50: > 100 µM (inactive)
[42]
  GI50: 70.6 µM (inactive)
[43]
  GI50: > 100 µM (inactive)
[44]
  GI50: 12.9 µM (inactive)
[45]
  GI50: 62.4 µM (inactive)
[46]
  GI50: 51.4 µM (inactive)
[47]
  GI50: > 100 µM (inactive)
[48]
  GI50: > 100 µM (inactive)
[49]
  GI50: 29.5 µM (inactive)
[50]
  GI50: > 100 µM (inactive)
[51]
  GI50: > 100 µM (inactive)
[52]
  GI50: 71.9 µM (inactive)
[53]
  GI50: 54.2 µM (inactive)
[54]
  GI50: 82.2 µM (inactive)
[55]
  GI50: 11.7 µM (inactive)
[56]
  GI50: > 100 µM (inactive)
[57]
  GI50: > 100 µM (inactive)
